# According to patent publication US7868005B2, “Pyrazinyl substituted piperazine-piperidines with CXCR3 antagonist activity” (Schering Corporation, priority 2005, dated 2011):
# Target: T1, human CXCR3 (N-delta 4) (Homo sapiens, UniProt P49682)
# T1 construct: CD8 leader (N); Flag; expressed in transfected cells; membranes prepared
# T1 sequence (P49682 5-368 limits assumed): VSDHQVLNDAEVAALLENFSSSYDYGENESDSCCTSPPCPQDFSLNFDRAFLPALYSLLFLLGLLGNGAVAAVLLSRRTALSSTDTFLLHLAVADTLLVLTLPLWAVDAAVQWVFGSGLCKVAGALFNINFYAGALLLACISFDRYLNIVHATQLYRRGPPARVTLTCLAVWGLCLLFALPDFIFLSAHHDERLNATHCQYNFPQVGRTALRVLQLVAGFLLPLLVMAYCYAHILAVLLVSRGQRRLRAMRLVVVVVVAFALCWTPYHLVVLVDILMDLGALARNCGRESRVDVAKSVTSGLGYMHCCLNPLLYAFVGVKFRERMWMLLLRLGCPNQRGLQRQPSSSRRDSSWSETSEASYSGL
# Test: Human CXCR3 (N-delta 4) Scintillation Proximity Assay (SPA), [125I] IP-10 binding to Ba/F3-hCXCR3 membranes
# Conditions: IC50 rating, Table 1; read-out: IC50
row,Compound,IC50
1,CC[C@H]1CN(c2nc(N)c(C(=O)N[C@@H]3CCNC3=O)nc2Cl)CCN1C1CCN(Cc2ccc(C#N)cc2)CC1 [compound 280],> 100 nM
2,CC[C@H]1CN(c2nc(N)c(C(=O)NC)nc2Cl)CCN1C1CCN(Cc2ccc(C#N)cc2)CC1 [compound 64],< 25 nM
3,CC[C@H]1CN(c2nc(N)c(C(=O)NC3CC3)nc2Cl)CCN1C1CCN(Cc2ccc(C#N)cc2OCCN2CCCC2=O)CC1 [compound 93],< 25 nM
4,CC[C@H]1CN(c2nc(N)c(C(N)=O)nc2Cl)CCN1C1CCN(Cc2ccc(Cl)cc2C2COC(=O)O2)CC1 (stereo partly drawn) [compound 24],25 to 100 nM
5,CC[C@H]1CN(c2nc(N)c(C(N)=O)nc2Cl)CCN1C1CCN(Cc2ccc(Cl)cc2CC(C)(C)O)CC1 [compound 30],25 to 100 nM
6,CC[C@H]1CN(c2nc(N)c(C(=O)N[C@H]3CCOC3=O)nc2Cl)CCN1C1CCN(Cc2ccc(Cl)cc2)CC1 [compound 279],< 25 nM
7,CC[C@H]1CN(c2nc(N(C)C)c(C(=O)OC)nc2Cl)CCN1C1CCN(Cc2ccc(Cl)cc2)CC1 [compound 290],< 25 nM
8,CC[C@H]1CN(c2nc(N)c(C(N)=O)nc2Cl)CCN1C1CCN(C(=O)c2ccc(Cl)cc2)CC1 [compound 349],25 to 100 nM
9,CC[C@H]1CN(c2nc(N)c(C(=O)NCCNS(N)(=O)=O)nc2Cl)CCN1C1CCN(Cc2ccc(F)c(F)c2)CC1 [compound 265],< 25 nM
10,COC(=O)c1nc(Cl)c(N2CCN(C3CCN(Cc4ccc(Cl)cc4)CC3)[C@@H](C)C2)nc1N [compound 302],> 100 nM
11,CC[C@H]1CN(c2nc(N)c(C(=O)NC)nc2Cl)CCN1C1CCN([C@@H](CO)c2ccc(Cl)cc2)CC1 [compound 62],< 25 nM
12,CC[C@H]1CN(c2nc(N)c(C(=O)NCCO)nc2Cl)CCN1C1CCN(C(=O)c2ccc(F)c(O)c2)CC1 [compound 419],< 25 nM
13,CC[C@H]1CN(c2ncc(C(=O)NC3CC3)nc2C)CCN1C1CCN(Cc2ccc(F)c(F)c2)CC1 [compound 450],< 25 nM
14,CC[C@H]1CN(c2ncc(C(N)=O)nc2C)CCN1C1CCN(Cc2ccc(C(F)(F)F)cc2)CC1 [compound 445],< 25 nM
15,CC[C@H]1CN(c2nc(N)c(C(=O)N[C@@H](CO)C(C)O)nc2Cl)CCN1C1CCN(C(=O)c2ccc(Cl)cc2)CC1 (stereo partly drawn) [compound 328],> 100 nM
16,CC[C@H]1CN(c2ncc(C(N)=O)nc2C)[C@H](C)CN1C1CCN(Cc2ccc(OC(F)(F)F)cc2)CC1 [compound 466],< 25 nM
17,CC[C@H]1CN(c2nc(N)c(C(=O)NCCN/C(N)=N/C#N)nc2Cl)CCN1C1CCN(Cc2ccc(Cl)cc2C#N)CC1 [compound 236],> 100 nM
18,CC[C@H]1CN(c2nc(N)c(C(=O)NCCS(C)(=O)=O)nc2Cl)CCN1C1CCN(Cc2ccc(Cl)cc2)CC1 [compound 101],25 to 100 nM
19,CC[C@H]1CN(c2nc(N)c(C(=O)NC)nc2Cl)CCN1C1CCN(C(=O)c2ccc(Br)cc2)CC1 [compound 331],< 25 nM
20,CC[C@H]1CN(c2nc(N)c(C(=O)NC)nc2Cl)CCN1C1CCN(CCCC(=O)c2ccc(Cl)cc2)CC1 [compound 73],25 to 100 nM
21,CC[C@H]1CN(c2nc(N)c(C(=O)OC)nc2Cl)CCN1C1CCN(Cc2ccc(Cl)cc2CCN)CC1 [compound 294],< 25 nM

row,Compound,IC50
1,CC[C@H]1CN(c2ncc(C(N)=O)nc2C)CCN1C1CCN([C@H](CO)c2ccc(Cl)cc2)CC1 [compound 444],< 25 nM
2,CC[C@H]1CN(c2ncc(C(N)=O)nc2Cl)CCN1C1CCN(Cc2ccc(Cl)cc2[C@H](O)C(N)=O)CC1 [compound 285],< 25 nM
3,CC[C@H]1CN(c2nc(N)c(C(=O)NC3CC3)nc2C)[C@H](C)CN1C1CCN(C(=O)c2ccc(Cl)cc2)CC1 [compound 480],< 25 nM
4,CC[C@H]1CN(c2nc(N)c(C(=O)OC)nc2Cl)CCN1C1CCN(Cc2ccc(Cl)cc2OCCNC(=O)NC(C)(C)C)CC1 [compound 297],25 to 100 nM
5,CC[C@H]1CN(c2nc(N)c(C(=O)NCCO)nc2Cl)CCN1C1CCN(C(=O)c2ccc(Cl)cc2)CC1 [compound 334],< 25 nM
6,CC[C@H]1CN(c2nc(N)c(C(=O)NC[C@@H](C)O)nc2Cl)CCN1C1CCN(Cc2ccc(Cl)cc2CC#N)CC1 [compound 220],< 25 nM
7,CC[C@H]1CN(c2nc(N)c(C(=O)NCCNS(N)(=O)=O)nc2Cl)CCN1C1CCN([C@@H](CO)c2ccc(Cl)cc2)CC1 [compound 257],< 25 nM
8,CC[C@H]1CN(c2nc(N)c(C(=O)NCCO)nc2Cl)CCN1C1CCN(Cc2ccc(Cl)c(F)c2O)CC1 [compound 155],< 25 nM
9,CC[C@H]1CN(c2nc(N)c(C(=O)NC(=N)NC)nc2Cl)CCN1C1CCN(C(=O)c2ccc(C#N)cc2)CC1 [compound 399],< 25 nM
10,CC[C@H]1CN(c2nc(N)c(C(=O)NCCO)nc2Cl)CCN1C1CCN(Cc2ccc(Oc3ccc(F)cc3)cc2)CC1 [compound 162],< 25 nM
11,CC[C@H]1CN(c2nc(N)c(C(=O)NCCO)nc2Cl)CCN1C1CCN(C2c3ccc(C#N)cc3CCC2O)CC1 (stereo partly drawn) [compound 304],< 25 nM
12,CC[C@H]1CN(c2nc(N)c(C(=O)NCCCN3CCCS3(=O)=O)nc2Cl)CCN1C1CCN(Cc2ccc(C#N)cc2)CC1 [compound 275],> 100 nM
13,CC[C@H]1CN(c2nc(N)c(C(=O)NCCN)nc2Cl)CCN1C1CCN(Cc2ccc(Cl)cc2C#N)CC1 [compound 234],25 to 100 nM
14,CC[C@H]1CN(c2ncc(C(=O)NC)nc2C(F)(F)F)CCN1C1CCN(C(=O)c2ccc(Cl)cc2)CC1 [compound 477],< 25 nM
15,CC[C@H]1CN(c2nc(N)c(C(=O)NCCO)nc2Cl)CCN1C1CCN(Cc2ccc(Cl)cc2/C(N)=N\O)CC1 [compound 108],< 25 nM
16,CC[C@H]1CN(c2nc(N)c(C(=O)NCCNS(C)(=O)=O)nc2Cl)CCN1C1CCN([C@H](CO)c2ccc(Cl)cc2)CC1 [compound 249],25 to 100 nM
17,CC[C@H]1CN(c2ncc(C(=O)NC3CC3)nc2C)CCN1C1CCN(Cc2ccc(Cl)c(OCCS(C)(=O)=O)c2)CC1 [compound 492],< 25 nM
18,CC[C@H]1CN(c2nc(N)c(C(N)=O)nc2Cl)CCN1[C@H]1CCN(Cc2ccc(Cl)cc2)C[C@@H]1O [compound 283],> 100 nM
19,CC[C@H]1CN(c2nc(N)c(C(=O)NCCO)nc2Cl)CCN1C1CCN(Cc2ccc(F)c(OS(C)(=O)=O)c2)CC1 [compound 421],< 25 nM
20,CC[C@H]1CN(c2ncc(C(=O)OC)nc2C)[C@H](C)CN1C1CCN([C@@H](CO)c2ccc(Cl)cc2)CC1 [compound 465],< 25 nM
21,CC[C@H]1CN(c2nc(N)c(C(=O)NC)nc2Cl)CCN1C1CCN(Cc2ccc(Cl)cc2)CC1 [compound 61],< 25 nM

row,Compound,IC50
1,CC[C@H]1CN(c2ncc(C(N)=O)nc2C)CCN1C1CCN([C@@H](C(=O)OC)c2ccc(Cl)cc2)CC1 [compound 463],< 25 nM
2,CC[C@H]1CN(c2nc(N)c(C(N)=O)nc2Cl)CCN1C1CCN(Cc2ccc(C#N)cc2)CC1 [compound 16],< 25 nM
3,CC[C@H]1CN(c2nc(N)c(C(=O)NCCO)nc2Cl)CCN1C1CCN(C(CCNC(C)=O)c2ccc(Cl)cc2)CC1 (stereo partly drawn) [compound 179],25 to 100 nM
4,CC[C@H]1CN(c2nc(N)c(C(=O)NCCO)nc2Cl)CCN1C1CCN(Cc2ccc(C#N)cc2OCCO)CC1 [compound 173],< 25 nM
5,CC[C@H]1CN(c2nc(N)c(C(=O)NCCO)nc2Cl)CCN1C1CCN(Cc2ccc(OC)cc2O)CC1 [compound 152],< 25 nM
6,CC[C@H]1CN(c2nc(N)c(C(=O)NCCO)nc2Cl)CCN1C1CCN(C(CCN)c2ccc(Cl)cc2)CC1 (stereo partly drawn) [compound 199],> 100 nM
7,CC[C@H]1CN(c2nc(N)c(C(=O)NC(=N)NC)nc2Cl)CCN1C1CCN(Cc2ccc(Cl)c(F)c2)CC1 [compound 389],< 25 nM
8,CC[C@H]1CN(c2nc(N)c(C(=O)OC)nc2Cl)CCN1C1CCN(Cc2ccc(C#N)cc2O)CC1 [compound 306],> 100 nM
9,CC[C@H]1CN(c2ncc(C(=O)NC)nc2C)CCN1C1CCN(C(=O)c2ccc(OC(F)(F)F)cc2)CC1 [compound 475],< 25 nM
10,CC[C@H]1CN(c2nc(N)c(C(N)=O)nc2Cl)CCN1C1CCN(Cc2ccc(Cl)cc2)[C@H](C(N)=O)C1 (stereo partly drawn) [compound 282],25 to 100 nM
11,CC[C@H]1CN(c2nc(N)c(C(N)=O)nc2Cl)CCN1C1CCN(Cc2ccc(Cl)cc2C(C)(C)CO)CC1 [compound 19],< 25 nM
12,CC[C@H]1CN(c2nc(N)c(C(=O)NC3CC3)nc2Cl)CCN1C1CCN(Cc2ccc(C#N)cc2OCCO)CC1 [compound 86],< 25 nM
13,CC[C@H]1CN(c2nc(N)c(C(=O)NC)nc2Cl)CCN1C1CCN(C(=O)c2ccc(Cl)c(NS(C)(=O)=O)c2)CC1 [compound 364],> 100 nM
14,CC[C@H]1CN(c2nc(N)c(C(=O)NCCO[Si](C(C)C)(C(C)C)C(C)C)nc2Cl)CCN1C1CCN(Cc2ccc(F)c(F)c2N2CC[C@H](O)C2)CC1 [compound 374],> 100 nM
15,CC[C@H]1CN(c2nc(N)c(C(=O)NCCO)nc2Cl)CCN1C1CCN(Cc2ccc(Cl)cc2C(=N)N)CC1 [compound 111],< 25 nM
16,CC[C@H]1CN(c2ncc(C(=O)NC3CC3)nc2C)CCN1C1CCN([C@@H](CO)c2ccc(Cl)cc2)CC1 [compound 469],< 25 nM
17,CC[C@H]1CN(c2nc(N)c(C(N)=O)nc2Cl)CCN1C1CCN(Cc2ccc(Cl)cc2F)CC1 [compound 10],< 25 nM
18,CC[C@H]1CN(c2nc(N)c(C(=O)NC)nc2Cl)CCN1C1CCN([C@@H](C(=O)O)c2ccc(Cl)cc2)CC1 [compound 70],< 25 nM
19,CC[C@H]1CN(c2nc(N)c(C(=O)OC)nc2Cl)CCN1C1CCN(Cc2ccc(Cl)cc2CC#N)CC1 [compound 299],25 to 100 nM

# Same assay, conditions: human; read-out: human IC50
row,Compound,IC50
1,CC[C@H]1CN(c2ncc(C(=O)NC3CC3)nc2C)CCN1C1CCN(Cc2ccc(Cl)cc2)CC1 [Formula 10],< 1 nM
2,CC[C@H]1CN(c2nc(N)c(C(=O)NCCO)nc2Cl)CCN1C1CCN(Cc2ccc(Cl)cc2CO)CC1 [Formula 7],< 1 nM
